Assays:
[1] = Solid-state stability and interconversion of the crystalline forms; assay type: physicochemical; settings: for temperature range in which the polymorph is the stable form (enantiotropic transition temperature): Form I / Form III enantiotropic pair, transition about 34° C.
[2] = Solubility in water; assay type: physicochemical

temperature range in which the polymorph is the stable form (enantiotropic transition temperature) [1] | solubility [2] [mg/mL] | time for conversion to anhydrate Form I or Form III or mixtures thereof ([1]; at about 45° C., form is metastable) | Compound
below 34 °C | – | – | N[C@@H](CC(=O)N1CCn2c(nnc2C(F)(F)F)C1)Cc1cc(F)c(F)cc1F [anhydrate Form III]
above 34 °C | > 120 | – | N[C@@H](CC(=O)N1CCn2c(nnc2C(F)(F)F)C1)Cc1cc(F)c(F)cc1F [anhydrate Form I]
– | – | about 2 h | N[C@@H](CC(=O)N1CCn2c(nnc2C(F)(F)F)C1)Cc1cc(F)c(F)cc1F [desolvated anhydrate Form II]

From patent publication US20060287528A1, “Novel crystalline forms of a phosphoric acid salt of a dipeptidyl peptidase-iv inhibitor” (priority 2003, published 2006)
